Measured values from patent US12643889B2, “Synthesis of novel EP4 antagonist and use in cancer and inflammation” (Wuhan Humanwell Innovative Drug Research And Development …, priority 2020, dated 2026).

How the values were obtained:
[1] = target: T1, human EP4 receptor (Homo sapiens, UniProt P35408); experiment: Assay of calcium current inhibition on EP4 receptor (FLIPR, 293 cells); format: cell-based; parameters: expressed in transfected cells; host or cells: 293 cells; details: for IC50: 293 cells overexpressing human EP4, PGE2 at EC80, FLIPR
T1 sequence (P35408 whole entry): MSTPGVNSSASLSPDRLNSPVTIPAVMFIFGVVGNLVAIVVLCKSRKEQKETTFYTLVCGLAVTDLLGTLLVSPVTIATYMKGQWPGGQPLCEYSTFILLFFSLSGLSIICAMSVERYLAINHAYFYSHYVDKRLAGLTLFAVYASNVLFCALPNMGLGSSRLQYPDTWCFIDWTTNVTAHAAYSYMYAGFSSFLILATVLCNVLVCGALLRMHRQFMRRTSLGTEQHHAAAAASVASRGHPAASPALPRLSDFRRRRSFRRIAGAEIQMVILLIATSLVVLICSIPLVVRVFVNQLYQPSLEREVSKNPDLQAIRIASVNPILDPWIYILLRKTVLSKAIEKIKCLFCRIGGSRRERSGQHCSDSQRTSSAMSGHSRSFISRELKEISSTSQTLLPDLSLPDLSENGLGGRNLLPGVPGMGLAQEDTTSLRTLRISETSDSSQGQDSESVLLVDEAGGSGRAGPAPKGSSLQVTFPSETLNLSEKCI
Description: The cells were rapidly thawed in a 37° C. water bath, centrifuged, resuspended, and counted. The cell suspensions were seeded at 20 μL/well in two 384-well plates (20,000 cells/well) and placed in an incubator (a 37° C., 5% CO2) overnight. Preparation of a 2× Fluo-4 Direct™ (Invitrogen, Cat #F10471) loading buffer: 77 mg of probenecid was added to 1 mL of a FLIPR buffer, with a concentration of 250 mM. 10 mL of FLIPR buffer and 0.2 mL of probenecid (250 mM) were added to each tube of Fluo-4 Direct™ crystals (F10471).
One of the cell plates was taken out of the incubator and the medium was removed. 20 μL of an assay buffer and 2× Fluo-4 Direct™ non-wash loading buffer were added to the 384-well cell culture plate to a final volume of 40 μL, and then the culture plate was incubated in an incubator (a 37° C., 5% CO2) for 50 minutes, and then at room temperature for 10 minutes, and then the plate was placed in the FLIPR. 10 μL of the buffer was transferred to the cell plate and the fluorescence signal was read. The agonist PGE2 was formulated as a 10 mM stock in a DMSO solvent and 10 concentration points of the 6× working solution were serially diluted using the buffer. 10 μL of the agonist PGE2 was transferred to the cell plate, the fluorescence signal was read to calculate EC80 value.
The agonist PGE2 was prepared at 6× EC80 concentration and the compound to be tested was formulated as a 10 mM stock solution in the DMSO solvent and 10 concentration points of the 6× compound working solution was serially diluted using the buffer.
Another cell plate was taken to remove media and 20 μL of the assay buffer and 2× Fluo-4 Direct™ non-wash loading buffer were added; the cell plate was incubated in a 37° C., 5% CO2 incubator for 50 minutes and room temperature for 10 minutes and then placed in the FLIPR. 10 μL of the compound working solution, DMSO, and the EP4 full antagonist were transferred to the cell plate and the fluorescence signal was read. […] Inhibition (%)=100−(test group−EP4 full antagonist group)/(DMSO group−EP4 full antagonist group)*100
Compound's IC50 value of EP4 calcium current inhibition was calculated based on the inhibition rate at different concentrations of the compound.

[2] = target: T2, recombinant human EP4 receptor membrane protein (Homo sapiens, UniProt P35408); experiment: Radioligand binding assay for EP4 receptor ([3H]-PGE2); details: [3H]-PGE2 1.5 nM; membrane protein 20 μg/well
T2 construct: expressed in transfected cells; host or cells: membranes of 293 cells overexpressing human EP4 receptor
T2 sequence (P35408 whole entry): as above
Description: The compounds to be tested and PGE2 were formulated as 10 mM stocks in a DMSO solvent, and then 8 concentration points of 4× working solution were serially diluted using a buffer (50 mM HBSS, 0.1% BSA, 500 mM NaCl). […] Unifilter-96 GF/C filter plate (Perkin Elmer) was soaked with 0.5% BSA, 50 μL per well, for at least 30 min at room temperature. After binding was complete, the reaction mixture was harvested through a GF/C plate using a Perkin Elmer Filtermate Harvester, followed by washing the filter plate and drying the filter plate for 1 hour at 50° C. After drying, the bottom of the filter plate wells was sealed using a Perkin Elmer Unifilter-96 sealing tape, and 50 μL of MicroScint™-20 cocktail (Perkin Elmer) was added to seal the top of the filter plate. The ^3H counts captured on the filter were read using a Perkin Elmer MicroBeta2 Reader.
The IC50 and Ki values of the compounds determined by the radioligand binding assay for EP4 receptor were calculated based on the inhibition rate of the different concentrations of the compounds.

[3] = target: T1, human EP4 receptor; experiment: Assay for EP4 antagonistic effect (cAMP, PGE2-stimulated CHO stable cell line)
Description: After trypsinization, cells were resuspended in a buffer (1×HBSS, 0.1% BSA, 20 mM HEPES, and 500 μM IBMX) and 8000 cells were seeded per well in 384-well plates in a seeding volume of 15 μL. A working solution the compound with a 8× concentration was prepared with an experimental buffer, and then 2.5 μL of the working solution of the compound with 8× concentration was added to the 384-well plate, respectively, and incubated at 37° C. for 30 min. An agonist PGE2 working solution with 8× concentration of (4 nM) was prepared with the experimental buffer and 2.5 μL per well was added to the 384-well plate (the final PGE2 concentration was 0.5 nM) and incubated at 37° C. for 30 min. After the reaction was completed, the amount of cAMP in the cells was quantified according to the method in the instructions of the cAMP test kit (Perkin Elmer, Cat #TRF0263). The antagonistic effects (IC50 value) were calculated for the test compounds.

[4] = Mouse pharmacokinetic assay; format: in vivo, male ICR mice; details: male, ICR, plasma, oral gavage administration 5 mg/kg
Description: (§1) In a mouse pharmacokinetic assay, male ICR mice (20 g to 25 g) were selected and fasted overnight. Three mice were selected and intragastrically administered with 5 mg/kg of the corresponding compound. The blood of the mice was collected before the administration and at 15 min, 30 min, 1 h, 2 h, 4 h, 8 h, 24 h after the administration. Another 3 mice were intravenously administered with 1 mg/kg of the corresponding compound, and the blood thereof was collected before the administration and at 15 min, 30 min, 1 h, 2 h, 4 h, 8 h, 24 h after the administration. The blood samples were centrifuged at 6800 g at 2° C. to 8° C. for 6 minutes, and plasma was collected and stored at −80° C. The plasma was taken at respective time point, mixed with 3-5 times the amount of acetonitrile containing internal standard, vortexed for 1 minute, centrifuged at 4° C. for 10 minutes at 13000 rpm, supernatant was added 3 times the amount of water, and the appropriate mixture was taken for LC-MS/MS analysis. The primary pharmacokinetic parameters were analyzed with a WinNonlin 7.0 software, with non-compartmental model.

[5] = Rat pharmacokinetic assay; format: in vivo, male SD rats; details: male, SD, plasma, rat, intravenous administration 1 mg/kg
Description: as §1
In a rat pharmacokinetic assay, male SD rats (180 g to 240 g) were selected and fasted overnight. Three rats were intragastrically administered with 5 mg/kg of the corresponding compound. Another 3 rats were intravenously administered with 1 mg/kg of the corresponding compound. The following operations were the same as the mouse pharmacokinetic assay.

Structure (SMILES) | IC50 [1] | IC50 [2] | Ki [2] | other results
C[C@H](NC(=O)c1c(C(F)F)nn(C)c1Oc1ccc(F)c(C(C)(F)F)c1)c1ccc(C(=O)O)cc1 [Compound I-10, (S)-4-(1-(5-(3-(1,1-difluoroethyl)-4-fluorophenoxy)-3-(difluoromethyl)-1-methyl-1H-pyrazole-4-carboxamido)ethyl)benzoic Acid] | 14 nM | 4 nM | 2.2 nM | –
CCc1cc(Oc2c(C(=O)N[C@@H](C)c3ccc(C(=O)O)cc3)c(C(F)F)nn2C)ccc1C [Compound I-17, (S)-4-(1-(3-(difluoromethyl)-5-(3-ethyl-4-methylphenoxy)-1-methyl-1H-pyrazole-4-carboxamido)ethyl)benzoic Acid] | 18 nM | – | – | –
Cc1nn(C)c(Oc2cccc(C(C)(F)F)c2)c1C(=O)N[C@@H](C)c1ccc(C(=O)O)cc1 [Compound I-8, (S)-4-(1-(5-(3-(1,1-difluoroethyl)phenoxy)-1,3-dimethyl-1H-pyrazole-4-carboxamido)ethyl)benzoic Acid] | 16.5 nM | – | – | –
CC(c1cccc(Oc2c(C(=O)N[C@@H](C)c3ccc(C(=O)O)cc3)c(C(F)F)nn2C)c1)C(F)(F)F (stereo partly drawn) [Compound I-15, 4-((1S)-1-(3-(difluoromethyl)-1-methyl-5-(3-(1,1,1-trifluoropropan-2-yl)phenoxy)-1H-pyrazole-4-carboxamido)ethyl)benzoic Acid] | 18 nM | 12 nM | 6.6 nM | –
CCc1cc(Oc2c(C(=O)N[C@@H](C)c3ccc(C(=O)O)cc3)c(C(F)F)nn2C)ccc1Cl [Compound I-11, (S)-4-(1-(5-(4-chloro-3-ethylphenoxy)-3-(difluoromethyl)-1-methyl-1H-pyrazole-4-carboxamido)ethyl)benzoic Acid] | 8 nM | 6.8 nM | 3.7 nM | –
C[C@H](NC(=O)c1c(C(F)F)nn(C)c1Oc1cccc(C2CC2)c1)c1ccc(C(=O)O)cc1 [Compound I-3, (S)-4-(1-(5-(3-cyclopropylphenoxy)-3-(difluoromethyl)-1-methyl-1H-pyrazole-4-carboxamido)ethyl)benzoic Acid] | 3 nM | 9 nM | 4.9 nM | IC50 [3]: 2.8 nM
C[C@H](NC(=O)c1c(C(F)F)nn(C)c1Oc1cccc(OCC(F)(F)F)c1)c1ccc(C(=O)O)cc1 [Compound I-33, (S)-4-(1-(3-(difluoromethyl)-1-methyl-5-(3-(2,2,2-trifluoroethoxy)phenoxy)-1H-pyrazole-4-carboxamido)ethyl)benzoic Acid] | 12 nM | 31 nM | 17 nM | AUC(0-t) [4]: 8290 ng·h/mL; Cmax [4]: 2530 ng/mL; Tmax [4]: 0.33 h; half-life [4]: 8.22 h; AUC(0-t) [5]: 4670 ng·h/mL; clearance [5]: 3.67 mL/min/kg; half-life [5]: 9.02 h; Vd ([5]; read-out: Vz): 2.72 L/kg
Cc1cc(Oc2c(C(=O)N[C@@H](C)c3ccc(C(=O)O)cc3)c(C(F)F)nn2C)cs1 [Compound I-41, (S)-4-(1-(3-(difluoromethyl)-1-methyl-5-((5-methylthiophen-3-yl)oxy)-1H-pyrazole-4-carboxamido)ethyl)benzoic Acid] | 16 nM | – | – | –
CC(C)c1cccc(Oc2c(C(=O)N[C@@H](C)c3ccc(C(=O)O)cc3)c(C(F)F)nn2C)c1 [Compound I-4, (S)-4-(1-(3-(difluoromethyl)-5-(3-isopropylphenoxy)-1-methyl-1H-pyrazole-4-carboxamido)ethyl)benzoic Acid] | 4 nM | 7.4 nM | 4 nM | increase of inhibition effect on the calcium current of EP4 compared with the control compound ([1]; compared with the control compound): more than 5 time
CCc1cc(F)cc(Oc2c(C(=O)N[C@@H](C)c3ccc(C(=O)O)cc3)c(C(F)F)nn2C)c1 [Compound I-12, (S)-4-(1-(3-(difluoromethyl)-5-(3-ethyl-5-fluorophenoxy)-1-methyl-1H-pyrazole-4-carboxamido)ethyl)benzoic Acid] | 19 nM | – | – | –
C[C@H](NC(=O)c1c(C(F)F)nn(C)c1Oc1cccc(SC(F)(F)F)c1)c1ccc(C(=O)O)cc1 [Compound I-29, (S)-4-(1-(3-(difluoromethyl)-1-methyl-5-(3-((trifluoromethyl)thio)phenoxy)-1H-pyrazole-4-carboxamido)ethyl)benzoic Acid] | – | – | – | IC50 [3]: 14 nM
CCc1cccc(Oc2c(C(=O)N[C@@H](C)c3ccc(C(=O)O)cc3)c(C)nn2C)c1 [Compound I-9, (S)-4-(1-(5-(3-ethylphenoxy)-1,3-dimethyl-1H-pyrazole-4-carboxamido)ethyl) benzoic Acid] | – | – | – | IC50 [3]: 29 nM

Further lines, with some results ahead:

IC50 [1] | IC50 [2] | Ki [2] | Structure (SMILES) | other results
8.5 nM | – | – | C[C@H](NC(=O)c1c(C(F)F)nn(C)c1Oc1ccc(-c2ccccc2)cc1)c1ccc(C(=O)O)cc1 [Compound I-26, (S)-4-(1-(5-([1,1′-biphenyl]-4-yloxy)-3-(difluoromethyl)-1-methyl-1H-pyrazole-4-carboxamido)ethyl)benzoic Acid] | –
15 nM | 12 nM | 6.6 nM | CSc1cccc(Oc2c(C(=O)N[C@@H](C)c3ccc(C(=O)O)cc3)c(C(F)F)nn2C)c1 [Compound I-30, (S)-4-(1-(3-(difluoromethyl)-1-methyl-5-(3-(methylthio)phenoxy)-1H-pyrazole-4-carboxamido)ethyl)benzoic Acid] | IC50 [3]: 12 nM
– | 13 nM | 7 nM | CC(O)c1cc(Oc2c(C(=O)N[C@@H](C)c3ccc(C(=O)O)cc3)c(C(F)F)nn2C)ccc1F (stereo partly drawn) [Compound I-23, 4-((1S)-1-(3-(difluoromethyl)-5-(4-fluoro-3-(1-hydroxyethyl)phenoxy)-1-methyl-1H-pyrazole-4-carboxamido)ethyl)benzoic Acid] | –
10 nM | – | – | CC(F)c1cccc(Oc2c(C(=O)N[C@@H](C)c3ccc(C(=O)O)cc3)c(C(F)F)nn2C)c1 (stereo partly drawn) [Compound I-13, 4-((1S)-1-(3-(difluoromethyl)-5-(3-(1-fluoroethyl)phenoxy)-1-methyl-1H-pyrazole-4-carboxamido)ethyl)benzoic Acid] | –
8 nM | – | – | C[C@H](NC(=O)c1c(C(F)F)nn(C)c1Oc1cccc(S(F)(F)(F)(F)F)c1)c1ccc(C(=O)O)cc1 [Compound I-28, (S)-4-(1-(3-(difluoromethyl)-1-methyl-5-(3-(pentafluoro-λ^6-sulfanyl)phenoxy)-1H-pyrazole-4-carboxamido)ethyl)benzoic Acid] | IC50 [3]: 5.7 nM
